Publication PMC9679702, “BI 456906: Discovery and preclinical pharmacology of a novel GCGR/GLP-1R dual agonist with robust anti-obesity efficacy” (Molecular Metabolism, 2022)

Columns and labels:
Human GLP-1R [1] = target: T1, Human GLP-1R (Homo sapiens, UniProt P43220); assay: cAMP stimulation in CHO-K1 cells expressing human GLP-1R (AlphaScreen); assay type: cell-based; details: read-out: functional potency (EC50) in CHO-K1 cells, GLP-1R
endogenous mouse GLP-1R = target: T2, endogenous mouse GLP-1R (Mus musculus, UniProt O35659); assay: cAMP stimulation in mouse insulinoma MIN6 cells; assay type: cell-based
T2 construct: The EC50 for the endogenous mouse GLP-1R was assessed in the insulinoma cell line MIN6; endogenous in cells; host or cells: MIN6 mouse insulinoma cells
T2 sequence (O35659 22-463): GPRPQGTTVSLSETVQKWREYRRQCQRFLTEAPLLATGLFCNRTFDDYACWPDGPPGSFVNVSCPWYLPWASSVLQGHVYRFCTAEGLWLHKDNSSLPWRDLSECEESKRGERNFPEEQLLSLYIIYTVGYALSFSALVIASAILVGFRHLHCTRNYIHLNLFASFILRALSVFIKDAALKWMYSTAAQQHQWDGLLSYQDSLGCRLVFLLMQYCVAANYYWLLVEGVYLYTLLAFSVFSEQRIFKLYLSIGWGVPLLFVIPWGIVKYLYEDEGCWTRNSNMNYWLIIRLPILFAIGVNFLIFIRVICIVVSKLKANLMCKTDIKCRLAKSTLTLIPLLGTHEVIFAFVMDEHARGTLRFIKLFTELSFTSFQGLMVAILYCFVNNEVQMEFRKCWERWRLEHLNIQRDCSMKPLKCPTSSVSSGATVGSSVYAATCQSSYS

Human GCGR [2] = target: T3, Human GCGR (Homo sapiens, UniProt P47871); assay: cAMP stimulation in CHO-K1 cells expressing human GCGR (AlphaScreen); assay type: cell-based; details: read-out: functional potency (EC50) in CHO-K1 cells, GCGR
T3 sequence (P47871 26-477): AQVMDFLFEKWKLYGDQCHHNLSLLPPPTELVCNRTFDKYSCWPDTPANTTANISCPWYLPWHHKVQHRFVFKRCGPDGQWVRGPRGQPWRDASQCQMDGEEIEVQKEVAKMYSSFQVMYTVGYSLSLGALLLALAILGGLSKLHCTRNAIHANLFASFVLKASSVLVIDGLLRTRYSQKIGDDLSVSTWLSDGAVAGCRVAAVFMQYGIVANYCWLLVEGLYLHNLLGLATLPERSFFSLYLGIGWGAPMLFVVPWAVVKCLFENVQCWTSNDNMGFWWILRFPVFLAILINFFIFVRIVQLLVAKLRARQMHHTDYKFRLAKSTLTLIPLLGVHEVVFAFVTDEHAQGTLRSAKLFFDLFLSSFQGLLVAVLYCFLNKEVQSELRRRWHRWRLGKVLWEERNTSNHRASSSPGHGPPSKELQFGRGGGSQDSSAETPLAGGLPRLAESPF

endogenous GCGR [3] = target: T4, endogenous GCGR (Homo sapiens, UniProt P47871); assay: cAMP stimulation in primary human hepatocytes; assay type: cell-based; details: 0.1% BSA, Figure 1B, read-out: cAMP pEC50±SD, Human Hepatocytes (converted)
T4 construct: endogenous in cells; host or cells: primary human hepatocytes
T4 sequence (P47871 26-477): as above

endogenous GCGR [4] = target: T5, endogenous GCGR (Mus musculus, UniProt Q61606); assay: cAMP stimulation in primary mouse hepatocytes; assay type: cell-based; details: 0.1% BSA, Figure 1B, read-out: cAMP pEC50±SD, Mouse Hepatocytes (converted)
T5 construct: endogenous in cells; host or cells: primary mouse hepatocytes
T5 sequence (Q61606 27-485): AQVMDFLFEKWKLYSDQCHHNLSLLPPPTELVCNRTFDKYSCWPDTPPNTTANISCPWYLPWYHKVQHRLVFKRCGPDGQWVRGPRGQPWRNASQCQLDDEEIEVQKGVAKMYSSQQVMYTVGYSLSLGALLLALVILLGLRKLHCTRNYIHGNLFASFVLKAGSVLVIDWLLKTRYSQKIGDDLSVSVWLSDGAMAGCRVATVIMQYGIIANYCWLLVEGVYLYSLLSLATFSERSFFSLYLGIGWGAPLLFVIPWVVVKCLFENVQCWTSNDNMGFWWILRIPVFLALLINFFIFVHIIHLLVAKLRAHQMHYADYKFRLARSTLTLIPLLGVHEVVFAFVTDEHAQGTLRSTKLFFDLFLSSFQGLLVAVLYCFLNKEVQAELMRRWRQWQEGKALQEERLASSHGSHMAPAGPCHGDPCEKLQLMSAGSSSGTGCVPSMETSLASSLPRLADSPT

endogenous GCGR [5] = target: T6, endogenous GCGR (Rattus norvegicus, UniProt P30082); assay: cAMP stimulation in primary rat hepatocytes; assay type: cell-based; details: 0.1% BSA, Figure 1B, read-out: cAMP pEC50±SD, Rat Hepatocytes (converted)
T6 construct: endogenous in cells; host or cells: primary rat hepatocytes
T6 sequence (P30082 27-485): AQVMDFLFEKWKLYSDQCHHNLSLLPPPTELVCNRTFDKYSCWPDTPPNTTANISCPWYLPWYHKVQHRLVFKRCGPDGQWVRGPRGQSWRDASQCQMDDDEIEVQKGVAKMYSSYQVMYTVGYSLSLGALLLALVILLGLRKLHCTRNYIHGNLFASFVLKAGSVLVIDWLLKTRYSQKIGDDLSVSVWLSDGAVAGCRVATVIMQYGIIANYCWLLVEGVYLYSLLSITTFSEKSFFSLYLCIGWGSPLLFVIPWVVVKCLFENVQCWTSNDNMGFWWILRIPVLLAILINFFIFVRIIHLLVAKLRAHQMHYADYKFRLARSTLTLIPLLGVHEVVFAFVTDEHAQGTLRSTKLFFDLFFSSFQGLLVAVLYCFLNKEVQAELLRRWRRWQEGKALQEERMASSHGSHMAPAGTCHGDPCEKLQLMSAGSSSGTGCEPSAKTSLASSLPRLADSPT

GCGR = target: T7, GCGR (Rattus norvegicus, UniProt P30082); assay: Inhibition of glycogen synthesis in primary rat hepatocytes (14C-glucose incorporation); assay type: cell-based; details: 0.1% BSA, 22.5 mM glucose, 180 min, Figure 1B, read-out: GSi pIC50±SD, Rat Hepatocytes (converted)
T7 construct: endogenous in cells; host or cells: primary rat hepatocytes
T7 sequence (P30082 27-485): as above

Human GCGR [6] = target: T3, Human GCGR; assay: CRE-induced luciferase activity, HEK293 CRE-luc2P cells, human GCGR, in plasma; assay type: cell-based; details: for EC50: n = 3
Human GLP-1R [7] = target: T1, Human GLP-1R; assay: CRE-induced luciferase activity, HEK293 CRE-luc2P cells, human GLP-1R, in plasma; assay type: cell-based; details: n = 3
Pharmacokinetics in mice = assay type: in vivo
Protocol: (§1) For pharmacokinetic analysis, male C57BL/6NRj mice (Janvier, France) were given a single intravenous (IV) or subcutaneous (SC) BI 456906 dose (20 nmol/kg; N = 3 per route). In addition, male Beagle dogs received an IV or SC dose of 5 nmol/kg or 10 nmol/kg (N = 3) BI 456906, respectively. Plasma samples were generated at different time points post dosing and stored at −20 °C until further analysis. Plasma concentrations of BI 456906 were measured using a liquid chromatography/tandem mass spectrometry (LC/MS/MS) method with a calibration range of 0.5–1000 nM on a QTRAP 6500+ (Sciex, Framingham, MA, USA). Samples were pre-treated with ethanol for protein precipitation before the analysis.

[8] = Pharmacokinetics in Beagle dogs; assay type: in vivo; details: dog, SC injection, 10 nmol/kg, male Beagle dogs, N = 3, plasma, LC/MS/MS (Table S1)
Protocol: as §1

GLP-1R [9] = target: T8, GLP-1R (Mus musculus, UniProt O35659); assay: Oral glucose tolerance test in lean mice, single dosing; assay type: in vivo
T8 construct: The acute potency of BI 456906 in engaging the GLP-1R was tested in lean mice after single dosing; tissue Janvier Labs; host or cells: whole animal: lean wild-type NMRI, C57BL6/J or B6J mice
T8 sequence (O35659 22-463): T2 sequence (O35659 22-463)
Protocol: Mice were then fasted from −10 h, before bolus ingestion of glucose (2 g/kg) at 0 h. Blood glucose was measured at 0, 15, 30, 60, and 120 min, and compound exposure was measured at 120 min. In both experiments, glucose was measured in whole blood using a commercially available glucometer (GlucoSmart Swing) with test strips (MSP bodmann GmbH, Bobingen, Germany). Data are represented as mean ± standard error of mean (SEM) and were compared using GraphPad Prism 9 using two-way ANOVA, followed by Dunnett’s method for multiple comparisons versus vehicle. Significant differences were identified at p < 0.05.
(§2) ED50 values were calculated in GraphPad Prism 9 using the nonlinear fit tool.

GLP-1R [10] = target: T8, GLP-1R; assay: Intraperitoneal glucose tolerance test in lean mice, single dosing; assay type: in vivo; details: read-out: ED50 ipGTT
Protocol: Pre-treatment blood glucose was measured at −5 h. […] Baseline blood glucose was measured at −1 h, and then an intraperitoneal bolus of 2 g/kg glucose was applied at 0 h. Blood glucose was measured at 0, 15, 30, 60, and 120 min, and compound exposure was measured at 140 min.
as §2

GLP-1R [11] = target: T8, GLP-1R; assay: Inhibition of acute food intake in lean NMRI mice; assay type: in vivo; details: single SC dose, 24 h food intake
Protocol: The room temperature was controlled at 21 °C ± 1 °C, with 60% ± 20% humidity. […] Six-week-old male mice were randomized into treatment groups based on food intake and bodyweight (n = 8–10 per group). […] ED50 values were calculated in GraphPad Prism 9 using the nonlinear fit tool.

GLP-1R [12] = target: T8, GLP-1R; assay: Acute gastric emptying (acetaminophen) in lean mice; assay type: in vivo
Protocol: After 60 min, ex vivo assays assessing acetaminophen, blood glucose, and terminal exposure were carried out. Acetaminophen was measured using an automated analyzer (Cobas Integra 400; Roche, Rotkreuz, Switzerland). […] ED50 values were calculated in GraphPad Prism 9 using the nonlinear fit tool.

[13] = Energy expenditure study in diet-induced obese mice (indirect calorimetry, telemetry); assay type: in vivo
Protocol: Male C57BL/6J mice were obtained from Charles River Laboratories (Sulzfeld, Germany) at age 6–7 weeks. Animals were housed in groups of five in individually ventilated cages with a 12 h light/dark cycle (06:00–18:00) and were acclimatized for 1 week with ad libitum feeding. Animals were then fed a 45% HFD for 18 or 30 weeks, before randomization to groups with similar average bodyweight at Day −1. Animals were dosed QD with SC vehicle (25 mM phosphate-buffered saline) or BI 456906 (5, 10, or 20 nmol/kg) for 9 days, with energy metabolism, activity, and core body temperature measured each day. On Day 10, mice were sacrificed by cervical dislocation after a final bleeding by puncture of the retrobulbar venous plexus.
Energy metabolism was measured by indirect calorimetry. […] The mass flow of air through the respiratory cages and the concentrations of O2 and CO2 in inspired and expired air were measured every 10 min. […] Energy expenditure was analyzed by ANCOVA (see 2.16) for animals kept in single housing (dose groups 5 and 10 nmol/kg), applying statistical analysis using a general linear model framework including bodyweight as a covariate. […] Therefore, the regression-based ANCOVA was not calculated. Core body temperature and activity were measured by sensors (model 10TA10TA-F10; Data Sciences International, New Brighton, MA, USA) implanted in the peritoneal cavities. […]

Human GCGR [14] = target: T3, Human GCGR; assay: Ex vivo bioactivity assay, HEK cells with human GCGR and CRE-luciferase, 100% mouse plasma; details: DIO mice, plasma at study end, maximal dose of 30 nmol/kg
Human GLP-1R [15] = target: T1, Human GLP-1R; assay: Ex vivo bioactivity assay, HEK cells with human GLP-1R and CRE-luciferase, 100% mouse plasma
[16] = target: endogenous mouse GLP-1R (mouse (endogenous in MIN6)) (UniProt O35659)
[17] = target: human glucagon receptor (human) (UniProt P47871)
Chain of human glucagon receptor (human) (P47871 26-477): as the sequence (P47871 26-477) above

[18] = target: human glucagon-like peptide-1 receptor (human) (UniProt P43220)
Chain of human glucagon-like peptide-1 receptor (human) (P43220 24-463): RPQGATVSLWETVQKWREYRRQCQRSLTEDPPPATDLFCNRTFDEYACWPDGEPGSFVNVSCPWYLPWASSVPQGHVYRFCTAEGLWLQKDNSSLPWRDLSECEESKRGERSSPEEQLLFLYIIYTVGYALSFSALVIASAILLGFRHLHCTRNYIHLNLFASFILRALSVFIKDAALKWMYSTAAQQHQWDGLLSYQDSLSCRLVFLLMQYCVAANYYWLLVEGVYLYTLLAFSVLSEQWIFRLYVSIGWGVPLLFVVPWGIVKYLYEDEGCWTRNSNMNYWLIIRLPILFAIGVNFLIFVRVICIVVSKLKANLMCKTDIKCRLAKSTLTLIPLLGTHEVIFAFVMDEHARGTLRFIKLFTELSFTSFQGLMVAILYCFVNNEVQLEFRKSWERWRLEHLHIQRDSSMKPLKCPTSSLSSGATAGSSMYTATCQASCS

[19] = target: human glucagon receptor (human) (UniProt P47871); remark: listed apart in the source
[20] = target: human glucagon-like peptide-1 receptor (human) (UniProt P43220); remark: listed apart in the source

T1 sequence (P43220 24-463): as above

Compound: CC[C@H](C)[C@H](NC(=O)[C@H](Cc1ccccc1)NC(=O)[C@H](CC(=O)O)NC(=O)[C@H](CCCCN)NC(=O)[C@H](C)NC(=O)[C@H](C)NC(=O)[C@H](CCCNC(=N)N)NC(=O)[C@H](CCC(=O)O)NC(=O)[C@H](CC(=O)O)NC(=O)[C@H](CC(C)C)NC(=O)[C@H](Cc1ccc(O)cc1)NC(=O)[C@H](CCCCN)NC(=O)[C@H](CO)NC(=O)[C@H](Cc1ccc(O)cc1)NC(=O)[C@H](CC(=O)O)NC(=O)[C@H](CO)NC(=O)[C@@H](NC(=O)[C@H](Cc1ccccc1)NC(=O)[C@@H](NC(=O)CNC(=O)[C@H](CCC(N)=O)NC(=O)C1(NC(=O)[C@@H](N)Cc2c[nH]cn2)CCC1)[C@@H](C)O)[C@@H](C)O)C(=O)N[C@@H](CCCCNC(=O)CNC(=O)CNC(=O)[C@H](CO)NC(=O)CNC(=O)[C@H](CO)NC(=O)CNC(=O)CC[C@H](NC(=O)CCCCCCCCCCCCCCCCC(=O)O)C(=O)O)C(=O)N[C@@H](Cc1c[nH]c2ccccc12)C(=O)N[C@@H](CC(C)C)C(=O)N[C@@H](CCC(=O)O)C(=O)N[C@@H](CO)C(=O)N[C@@H](C)C(N)=O [BI 456906]
- EC50 (Human GLP-1R [1]): 0.33 nM
- EC50 (endogenous mouse GLP-1R): 0.36 nM
- EC50 (Human GCGR [2]): 0.52 nM
- EC50 (endogenous GCGR [3]): 537 nM
- EC50 (endogenous GCGR [4]): 407 nM
- EC50 (endogenous GCGR [5]): 18.6 nM
- IC50 (GCGR): 0.437 nM
- fold less potent at the GCGR in relation to endogenous glucagon (Human GCGR [6]; 0.5% human and mouse plasma): ~6 fold
- EC50 (Human GCGR [6]; Human GCGR HEK293 Cre-Luc EC50, Human Plasma 0.5%, 0.5% human plasma in KRBH, 4 h 37 °C): 0.29 nM
- EC50 (Human GCGR [6]; Human GCGR HEK293 Cre-Luc EC50, Human Plasma 100%, 100% human plasma, 4 h 37 °C): 8.3 nM
- EC50 (Human GCGR [6]; Human GCGR HEK293 Cre-Luc EC50, Mouse Plasma 0.5%, 0.5% mouse plasma in KRBH, 4 h 37 °C): 0.17 nM
- EC50 (Human GCGR [6]; Human GCGR HEK293 Cre-Luc EC50, Mouse Plasma 100%, 100% mouse plasma, 4 h 37 °C): 16 nM
- EC50 (Human GCGR [6]; Human GCGR HEK293 Cre-Luc pEC50±SD, Human Plasma 0.5%, 0.5% human plasma): 0.288 nM
- EC50 (Human GCGR [6]; Human GCGR HEK293 Cre-Luc pEC50±SD, Human Plasma 100%, 100% human plasma): 8.32 nM
- EC50 (Human GCGR [6]; Human GCGR HEK293 Cre-Luc pEC50±SD, Mouse Plasma 0.5%, 0.5% mouse plasma): 0.17 nM
- EC50 (Human GCGR [6]; Human GCGR HEK293 Cre-Luc pEC50±SD, Mouse Plasma 100%, 100% mouse plasma): 15.5 nM
- EC50 (Human GLP-1R [7]; Human GLP-1R HEK293 Cre-Luc EC50, Mouse Plasma 100%, 100% mouse plasma, 4 h 37 °C): 1.6 nM
- EC50 (Human GLP-1R [7]; Human GLP-1R HEK293 Cre-Luc pEC50±SD, Human Plasma 0.5%, 0.5% human plasma): 0.0148 nM
- EC50 (Human GLP-1R [7]; Human GLP-1R HEK293 Cre-Luc pEC50±SD, Human Plasma 100%, 100% human plasma): 1 nM
- EC50 (Human GLP-1R [7]; Human GLP-1R HEK293 Cre-Luc pEC50±SD, Mouse Plasma 0.5%, 0.5% mouse plasma): 0.00759 nM
- EC50 (Human GLP-1R [7]; Human GLP-1R HEK293 Cre-Luc pEC50±SD, Mouse Plasma 100%, 100% mouse plasma): 1.62 nM
- terminal half-life in mouse plasma compared with semaglutide (in words) (Pharmacokinetics in mice; mouse pharmacokinetic profiles (Table S1)): longer terminal half-life
- Tmax (Pharmacokinetics in mice; mouse, SC injection, 20 nmol/kg single dose, male C57BL/6NRj mice, N = 3, plasma, LC/MS/MS (Table S1)): 7 h
- MRT (Pharmacokinetics in mice; mouse, SC injection, 20 nmol/kg single dose, male C57BL/6NRj mice, N = 3, plasma, LC/MS/MS (Table S1), read-out: mean residence time): 44 h
- Tmax [8]: 51 h
- MRT ([8]; read-out: mean residence time): 140 h
- ED50 (GLP-1R [9]): 0.0021 µmol/kg
- ED50 (GLP-1R [10]): 0.004 µmol/kg
- ED50 (GLP-1R [11]): 0.09 µmol/kg
- ED50 (GLP-1R [12]; mouse, sc): 0.041 µmol/kg
- inhibition of gastric emptying, effective doses (in words) (GLP-1R [12]; reduced acetaminophen excursion, single SC dose, lean mice): effective only at higher doses of 100 and 300 nmol/kg
- energy expenditure (in words) ([13]; DIO mice, 5, 10 or 20 nmol/kg SC QD for 9 days, indirect calorimetry): dose-dependent increase in energy expenditure
- core body temperature and activity (in words) ([13]; DIO mice, therapeutic doses, implanted sensors): did not increase core body temperature or activity
- ex vivo bioequivalence over EC50, GCGR (Human GCGR [14]): < 100 fold
- EC50 (Human GLP-1R [15]): 2.4 nM
- ex vivo bioequivalence over EC50, GLP-1R (Human GLP-1R [15]; DIO mice, plasma at study end, maximal dose of 30 nmol/kg): less than 1000 fold

Compound: glucagon-like peptide-1
- EC50 of cAMP generation, mouse insulinoma MIN6 cells (endogenous receptor) [16]: 0.06 nM

Compound: BI 456906 (peptide)
- EC50 of cAMP generation, mouse insulinoma MIN6 cells (endogenous receptor) [16]: 0.36 nM
- EC50 of cAMP generation (AlphaScreen cAMP assay), CHO-K1 cells expressing human GCGR, 0.1% BSA [17]: 0.52 nM
- EC50 of cAMP generation (AlphaScreen cAMP assay), CHO-K1 cells expressing human GLP-1R, 0.1% BSA [18]: 0.33 nM
- EC50 in the CRE-luciferase assay, HEK293 CRE-luc2P cells expressing recombinant GCGR, 0.5% human plasma [19]: 0.29 nM
- EC50 in the CRE-luciferase assay, HEK293 CRE-luc2P cells expressing recombinant GCGR, 0.5% mouse plasma [19]: 0.17 nM
- EC50 in the CRE-luciferase assay, HEK293 CRE-luc2P cells expressing recombinant GCGR, 100% human plasma [19]: 8.3 nM
- EC50 in the CRE-luciferase assay, HEK293 CRE-luc2P cells expressing recombinant GCGR, 100% mouse plasma [19]: 16 nM
- EC50 in the CRE-luciferase assay, HEK293 CRE-luc2P cells expressing recombinant GLP-1R, 100% human plasma [20]: 1 nM
- EC50 in the CRE-luciferase assay, HEK293 CRE-luc2P cells expressing recombinant GLP-1R, 100% mouse plasma [20]: 1.6 nM
